ChEMBL document CHEMBL3400086, “Thieno[2,3-b]pyridines as negative allosteric modulators of metabotropic GluR5 receptors: Lead optimization” (Bioorg Med Chem Lett, 2015)

Key:
[1] = target: Metabotropic glutamate receptor 5 (Rattus norvegicus) (UniProt P31424); assay: Displacement of [3H]-M-MPEP from rat cerebrocortical mGluR5 receptor at 1 uM
Liver microsome [2] = assay: Intrinsic clearance in human liver microsomes measured per gram of tissue at 2.5 uM; type: ADME
Liver microsome [3] = assay: Intrinsic clearance in Wistar rat liver microsomes measured per gram of tissue at 2.5 uM; type: ADME
[4] = target: T1, Metabotropic glutamate receptor 5 (Rattus norvegicus, UniProt P31424); assay: Negative allosteric modulation of mGlu5 receptor in primary E17 rat embryo neuron assessed as ca2+ level by fluo-4/AM assay
Rattus norvegicus [5] = assay: Anxiolytic effect in po dosed Wistar male rat assessed as increase in number of accepted shocks by vogel punished drinking test; type: functional; conditions: read-out: MED
[6] = target: T1, Metabotropic glutamate receptor 5; assay: Displacement of [3H]-M-MPEP from rat cerebrocortical mGluR5 receptor
Rattus norvegicus [7] = assay: Anxiolytic effect in ip dosed Wistar male rat assessed as increase in number of accepted shocks by vogel punished drinking test; type: functional

Chain of Metabotropic glutamate receptor 5 (Rattus norvegicus) (P31424 21-1203 limits assumed): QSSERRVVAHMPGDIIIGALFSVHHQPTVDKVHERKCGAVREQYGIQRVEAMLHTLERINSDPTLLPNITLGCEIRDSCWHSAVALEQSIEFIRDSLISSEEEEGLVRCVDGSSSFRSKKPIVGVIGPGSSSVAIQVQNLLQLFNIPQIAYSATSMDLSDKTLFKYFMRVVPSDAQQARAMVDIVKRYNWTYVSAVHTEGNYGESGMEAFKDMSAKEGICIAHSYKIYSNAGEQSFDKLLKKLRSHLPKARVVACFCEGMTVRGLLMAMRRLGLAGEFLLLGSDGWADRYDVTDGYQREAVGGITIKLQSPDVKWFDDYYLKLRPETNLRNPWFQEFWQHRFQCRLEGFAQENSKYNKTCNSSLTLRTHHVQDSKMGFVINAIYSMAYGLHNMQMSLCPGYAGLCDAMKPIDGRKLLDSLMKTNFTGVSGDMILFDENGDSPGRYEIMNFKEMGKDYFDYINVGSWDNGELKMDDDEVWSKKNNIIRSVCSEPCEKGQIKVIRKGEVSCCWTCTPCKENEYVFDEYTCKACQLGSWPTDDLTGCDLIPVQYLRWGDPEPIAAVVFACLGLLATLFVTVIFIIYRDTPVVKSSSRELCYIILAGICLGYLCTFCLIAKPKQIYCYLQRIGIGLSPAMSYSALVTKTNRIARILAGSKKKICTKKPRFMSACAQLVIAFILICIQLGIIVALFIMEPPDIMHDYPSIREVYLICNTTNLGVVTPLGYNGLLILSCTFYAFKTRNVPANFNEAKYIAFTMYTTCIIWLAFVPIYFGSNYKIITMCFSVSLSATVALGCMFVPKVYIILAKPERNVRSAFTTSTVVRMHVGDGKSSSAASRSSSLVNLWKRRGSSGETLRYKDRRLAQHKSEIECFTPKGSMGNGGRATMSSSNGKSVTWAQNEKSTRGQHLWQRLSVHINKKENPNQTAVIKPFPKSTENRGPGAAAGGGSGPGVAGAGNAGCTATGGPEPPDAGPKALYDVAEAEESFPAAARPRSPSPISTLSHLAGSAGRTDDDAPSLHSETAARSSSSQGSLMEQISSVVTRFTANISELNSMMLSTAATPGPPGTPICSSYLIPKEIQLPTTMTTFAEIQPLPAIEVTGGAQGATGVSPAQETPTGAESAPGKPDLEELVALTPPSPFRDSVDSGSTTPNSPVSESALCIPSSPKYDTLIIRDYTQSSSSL
T1 sequence (P31424 whole entry): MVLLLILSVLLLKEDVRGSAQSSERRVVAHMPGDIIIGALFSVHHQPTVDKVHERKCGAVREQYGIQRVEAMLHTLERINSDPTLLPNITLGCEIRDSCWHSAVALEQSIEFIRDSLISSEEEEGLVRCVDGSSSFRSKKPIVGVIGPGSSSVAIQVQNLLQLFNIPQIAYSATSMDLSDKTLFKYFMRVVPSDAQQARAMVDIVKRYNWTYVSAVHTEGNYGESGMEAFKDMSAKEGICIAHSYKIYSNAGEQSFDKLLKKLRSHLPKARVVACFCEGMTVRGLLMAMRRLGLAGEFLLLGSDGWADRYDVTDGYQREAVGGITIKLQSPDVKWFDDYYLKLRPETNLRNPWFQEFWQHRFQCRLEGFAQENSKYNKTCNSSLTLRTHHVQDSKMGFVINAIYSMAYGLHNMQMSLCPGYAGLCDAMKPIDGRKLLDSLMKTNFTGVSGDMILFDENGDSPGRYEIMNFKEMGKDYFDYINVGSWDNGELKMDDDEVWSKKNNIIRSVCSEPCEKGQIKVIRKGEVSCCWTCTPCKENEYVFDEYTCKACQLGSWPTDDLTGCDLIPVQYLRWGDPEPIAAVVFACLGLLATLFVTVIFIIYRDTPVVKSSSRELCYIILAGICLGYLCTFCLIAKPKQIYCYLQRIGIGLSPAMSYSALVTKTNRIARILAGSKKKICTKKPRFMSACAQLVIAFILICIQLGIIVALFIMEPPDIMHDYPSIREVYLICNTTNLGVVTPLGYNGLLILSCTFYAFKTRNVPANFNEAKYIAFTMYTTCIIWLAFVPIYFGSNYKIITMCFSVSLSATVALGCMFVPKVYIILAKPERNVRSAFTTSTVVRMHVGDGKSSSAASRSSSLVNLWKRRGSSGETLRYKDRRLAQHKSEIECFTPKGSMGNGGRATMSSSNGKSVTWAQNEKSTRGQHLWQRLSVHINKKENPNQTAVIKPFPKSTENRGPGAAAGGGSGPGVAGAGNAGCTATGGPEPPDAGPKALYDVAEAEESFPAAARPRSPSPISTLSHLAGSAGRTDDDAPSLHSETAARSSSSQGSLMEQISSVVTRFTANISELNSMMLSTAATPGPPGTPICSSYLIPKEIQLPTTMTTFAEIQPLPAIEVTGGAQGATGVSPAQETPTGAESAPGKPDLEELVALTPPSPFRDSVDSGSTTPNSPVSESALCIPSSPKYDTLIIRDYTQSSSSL

Row | SMILES | inhibition [1] [%] | CLH (Liver microsome [2]) [mL/min/g] | CLH (Liver microsome [3]) [mL/min/g] | IC50 [4] [nM] | Ki [6] [nM] | further results
1 | O=S(=O)(Cc1ccccc1)c1sc2ncccc2c1-c1ccc(Cl)cc1 | 25 |  |  |  |  | 
2 | O=S(=O)(c1ccc(Cl)cc1)c1sc2nccc(O)c2c1-c1ccc(Cl)cc1 | 34 | 0.01 | 0.7 |  |  | 
3 | O=S(=O)(c1sc2ncccc2c1-c1ccc(Cl)cc1)C1CCCCC1 | 14 |  |  |  |  | 
4 | Cc1noc(C)c1S(=O)(=O)c1sc2ncccc2c1-c1ccc(Cl)cc1 | 0 |  |  |  |  | 
5 | O=S(=O)(c1ccc(Cl)cc1)c1sc2ncccc2c1Oc1ccc(Cl)cc1 | 11 | 3 | 9.3 |  |  | 
6 | CC1CCN(S(=O)(=O)c2sc3ncccc3c2-c2ccc(Cl)cc2)CC1 | 39 |  |  |  |  | 
7 | CCCCS(=O)(=O)c1sc2ncccc2c1-c1ccc(Cl)cc1 | 30 |  |  |  |  | 
8 | O=S(=O)(c1ccccc1Cl)c1sc2ncccc2c1-c1ccc(Cl)cc1 | 32 |  |  |  |  | 
9 | COc1ccnc2sc(S(=O)(=O)c3ccc(Cl)cc3)c(-c3ccc(Cl)cc3)c12 | 20 | 1 | 6.5 |  |  | 
10 | CS(=O)(=O)c1ccc(-c2c(S(=O)(=O)c3ccc(Cl)cc3)sc3ncccc23)cc1 | 13 | 0.4 | 2.4 |  |  | 
11 | Cc1cc(C)c(S(=O)(=O)c2sc3ncccc3c2-c2ccc(Cl)cc2)c(C)c1 | 0 |  |  |  |  | 
12 | COc1ccc2c(-c3ccc(Cl)cc3)c(S(=O)(=O)c3cccc(C#N)c3)sc2n1 | 50 | 0.3 | 4.2 |  |  | 
13 | N#Cc1cc(F)cc(S(=O)(=O)c2sc3ncc(N)cc3c2-c2cccc(F)c2)c1 |  | 0.9 | 1.2 | 5.5 |  | minimal effective dose (Rattus norvegicus [5]): 3 mg/kg
14 | O=S(=O)(c1cccs1)c1sc2ncccc2c1-c1ccc(Cl)cc1 | 34 |  |  |  |  | 
15 | N#Cc1cc(F)cc(S(=O)(=O)c2sc3ncc(N)cc3c2-c2ccccc2F)c1 |  | 1.1 | 2.5 | 1.6 | 1.5 | 
16 | CN(C)c1ccc2c(-c3ccc(Cl)cc3)c(S(=O)(=O)c3ccc(Cl)cc3)sc2n1 | 2 | 1.4 | 3.7 |  |  | 
17 | N#Cc1cc(F)cc(S(=O)(=O)c2sc3ncccc3c2-c2cccc(F)c2)c1 |  | 1.5 | 2.4 | 2.4 | 2.2 | 

Row | SMILES | inhibition [1] [%] | CLH (Liver microsome [2]) [mL/min/g] | CLH (Liver microsome [3]) [mL/min/g] | IC50 [4] [nM] | Ki [6] [nM] | further results
18 | Cc1nc(C)c(S(=O)(=O)c2sc3ncccc3c2-c2ccc(Cl)cc2)s1 | 35 |  |  |  |  | 
19 | N#Cc1cccc(S(=O)(=O)c2sc3nc(F)ccc3c2-c2ccc(Cl)cc2)c1 |  | 1 | 1.4 | 48 | 8.3 | 
20 | N#Cc1cc(F)cc(S(=O)(=O)c2sc3ncc(N)cc3c2-c2ccc(F)c(F)c2)c1 |  | 0.9 | 1 | 9 | 2.7 | 
21 | Nc1cnc2sc(S(=O)(=O)c3ccc(Cl)cc3)c(-c3ccc(Cl)cc3)c2c1 |  | 1.6 | 0.7 | 77 | 19.1 | 
22 | O=S(=O)(Nc1ccc(Cl)cc1)c1sc2ncccc2c1-c1ccc(Cl)cc1 | 20 |  |  |  |  | 
23 | N#Cc1cccc(-c2c(S(=O)(=O)c3cccc(C#N)c3)sc3ncccc23)c1 |  | 1.1 | 3.9 | 105 | 85 | 
24 | N#Cc1cc(F)cc(S(=O)(=O)c2sc3ncc(N)cc3c2-c2cnccc2F)c1 |  | 0.6 | 0.7 | 18 | 15.2 | 
25 | O=S(=O)(c1ccc(Cl)cc1)c1sc2ncccc2c1-c1ccc(Cl)cc1 |  | 1.6 | 4.2 |  |  | Activity (Rattus norvegicus [7]): Dose-dependent effect; minimal effective dose (Rattus norvegicus [7]; read-out: MED): 40 mg/kg
26 | N#Cc1cccc(S(=O)(=O)c2sc3ncccc3c2-c2ccc(Cl)cc2)c1 |  | 2.4 | 12.8 | 30 | 4.1 | 
27 | N#Cc1cccc(S(=O)(=O)c2sc3nc(Cl)ccc3c2-c2ccc(Cl)cc2)c1 | 19 | 1.4 | 3.6 |  |  | 
28 | Nc1ccc2c(-c3ccc(Cl)cc3)c(S(=O)(=O)c3ccc(Cl)cc3)sc2n1 |  | 0.01 | 0.5 | 374 | 83 | 
29 | N#Cc1cc(F)cc(S(=O)(=O)c2sc3ncc(N)cc3c2-c2cnccc2Cl)c1 |  | 1.1 | 1 | 34 | 9.3 | 
30 | N#Cc1ccc(-c2c(S(=O)(=O)c3cccc(C#N)c3)sc3ncccc23)cc1 | 62 | 0.1 | 2.9 |  |  | 
31 | CC(=O)Nc1ccc(S(=O)(=O)c2sc3ncccc3c2-c2ccc(Cl)cc2)cc1 | 6 |  |  |  |  | 
32 | N#Cc1cc(F)cc(S(=O)(=O)c2sc3nc(F)ccc3c2-c2cccc(F)c2)c1 |  | 0.6 | 2.9 | 4.9 | 2.5 | 
33 | O=S(=O)(NCc1ccc(Cl)cc1)c1sc2ncccc2c1-c1ccc(Cl)cc1 | 30 |  |  |  |  | 
34 | N#Cc1cccc(S(=O)(=O)c2sc3ncccc3c2-c2cccc(Cl)c2)c1 |  | 2.6 | 10.8 | 45 | 14.3 | 
